# Assay results reported in patent US20240238299A1, “USE OF PYRROLOPYRIMIDINE COMPOUND” (GUANGZHOU JOYO PHARMATECH CO., LTD, priority 2021, published 2024).
# Test system: MOG35-55-induced experimental autoimmune encephalomyelitis (EAE) mouse model
# Test: MOG35-55-induced EAE mouse model, clinical scoring and incidence
# Type: in vivo, C57BL/6 mice
# Details: for inhibition rate of AUC for clinical scoring: 14 days, vs vehicle control
smiles,measurement,setting,value
CN(c1ncnc2[nH]ccc12)[C@@H]1CCc2cc(C#N)nn2C1 [Compound I],inhibition rate of AUC for clinical scoring,3 mg/kg BID oral,44%
same,inhibition rate of AUC for clinical scoring,10 mg/kg BID oral,77%
same,inhibition rate of AUC for clinical scoring,20 mg/kg BID oral,63%
same,inhibition rate of AUC for clinical scoring,20 mg/kg QD oral,60%
same,"EAE clinical scoring, Mean","G5, 3 mg/kg BID oral, day 0",0.00
same,incidence of EAE,"G5, 3 mg/kg BID oral, day 0",0%
same,"EAE clinical scoring, Mean","G5, 3 mg/kg BID oral, day 2",0.00
same,incidence of EAE,"G5, 3 mg/kg BID oral, day 2",0%
same,"EAE clinical scoring, Mean","G5, 3 mg/kg BID oral, day 4",0.00
same,incidence of EAE,"G5, 3 mg/kg BID oral, day 4",0%
same,"EAE clinical scoring, Mean","G5, 3 mg/kg BID oral, day 7",0.00
same,incidence of EAE,"G5, 3 mg/kg BID oral, day 7",0%
same,"EAE clinical scoring, Mean","G5, 3 mg/kg BID oral, day 9",0.00
same,incidence of EAE,"G5, 3 mg/kg BID oral, day 9",0%
same,"EAE clinical scoring, Mean","G5, 3 mg/kg BID oral, day 11",0.00
same,incidence of EAE,"G5, 3 mg/kg BID oral, day 11",0%
same,"EAE clinical scoring, Mean","G5, 3 mg/kg BID oral, day 12",0.00
same,incidence of EAE,"G5, 3 mg/kg BID oral, day 12",0%
same,"EAE clinical scoring, Mean","G5, 3 mg/kg BID oral, day 13",0.20
same,incidence of EAE,"G5, 3 mg/kg BID oral, day 13",20%
same,"EAE clinical scoring, Mean","G5, 3 mg/kg BID oral, day 14",0.40
same,incidence of EAE,"G5, 3 mg/kg BID oral, day 14",40%
same,"EAE clinical scoring, Mean","G5, 3 mg/kg BID oral, day 15",0.60
same,incidence of EAE,"G5, 3 mg/kg BID oral, day 15",60%
same,"EAE clinical scoring, Mean","G5, 3 mg/kg BID oral, day 16",0.90
same,incidence of EAE,"G5, 3 mg/kg BID oral, day 16",70%
same,"EAE clinical scoring, Mean","G5, 3 mg/kg BID oral, day 17",1.50
same,incidence of EAE,"G5, 3 mg/kg BID oral, day 17",80%
same,"EAE clinical scoring, Mean","G5, 3 mg/kg BID oral, day 18",1.90
same,incidence of EAE,"G5, 3 mg/kg BID oral, day 18",90%
same,"EAE clinical scoring, Mean","G5, 3 mg/kg BID oral, day 19",1.90
same,incidence of EAE,"G5, 3 mg/kg BID oral, day 19",100%
same,"EAE clinical scoring, Mean","G5, 3 mg/kg BID oral, day 20",1.30
same,incidence of EAE,"G5, 3 mg/kg BID oral, day 20",70%
same,"EAE clinical scoring, Mean","G5, 3 mg/kg BID oral, day 21",1.10
same,incidence of EAE,"G5, 3 mg/kg BID oral, day 21",60%
same,"EAE clinical scoring, Mean","G5, 3 mg/kg BID oral, day 22",1.10
same,incidence of EAE,"G5, 3 mg/kg BID oral, day 22",60%
same,"EAE clinical scoring, Mean","G5, 3 mg/kg BID oral, day 23",1.00
same,incidence of EAE,"G5, 3 mg/kg BID oral, day 23",60%
same,"EAE clinical scoring, Mean","G5, 3 mg/kg BID oral, day 24",0.80
same,incidence of EAE,"G5, 3 mg/kg BID oral, day 24",50%
same,"EAE clinical scoring, Mean","G5, 3 mg/kg BID oral, day 25",0.80
same,incidence of EAE,"G5, 3 mg/kg BID oral, day 25",50%
same,"EAE clinical scoring, Mean","G5, 3 mg/kg BID oral, day 26",0.80
same,incidence of EAE,"G5, 3 mg/kg BID oral, day 26",50%
same,"EAE clinical scoring, Mean","G5, 3 mg/kg BID oral, day 27",0.60
same,incidence of EAE,"G5, 3 mg/kg BID oral, day 27",30%
same,"EAE clinical scoring, Mean","G6, 10 mg/kg BID oral, day 0",0.00
same,incidence of EAE,"G6, 10 mg/kg BID oral, day 0",0%
same,"EAE clinical scoring, Mean","G6, 10 mg/kg BID oral, day 2",0.00
same,incidence of EAE,"G6, 10 mg/kg BID oral, day 2",0%
same,"EAE clinical scoring, Mean","G6, 10 mg/kg BID oral, day 4",0.00
same,incidence of EAE,"G6, 10 mg/kg BID oral, day 4",0%
same,"EAE clinical scoring, Mean","G6, 10 mg/kg BID oral, day 7",0.00
same,incidence of EAE,"G6, 10 mg/kg BID oral, day 7",0%
same,"EAE clinical scoring, Mean","G6, 10 mg/kg BID oral, day 9",0.00
same,incidence of EAE,"G6, 10 mg/kg BID oral, day 9",0%
same,"EAE clinical scoring, Mean","G6, 10 mg/kg BID oral, day 11",0.00
same,incidence of EAE,"G6, 10 mg/kg BID oral, day 11",0%
same,"EAE clinical scoring, Mean","G6, 10 mg/kg BID oral, day 12",0.00
same,incidence of EAE,"G6, 10 mg/kg BID oral, day 12",0%
same,"EAE clinical scoring, Mean","G6, 10 mg/kg BID oral, day 13",0.20
same,incidence of EAE,"G6, 10 mg/kg BID oral, day 13",20%
same,"EAE clinical scoring, Mean","G6, 10 mg/kg BID oral, day 14",0.40
same,incidence of EAE,"G6, 10 mg/kg BID oral, day 14",40%
same,"EAE clinical scoring, Mean","G6, 10 mg/kg BID oral, day 15",0.50
same,incidence of EAE,"G6, 10 mg/kg BID oral, day 15",50%
same,"EAE clinical scoring, Mean","G6, 10 mg/kg BID oral, day 16",0.60
same,incidence of EAE,"G6, 10 mg/kg BID oral, day 16",50%
same,"EAE clinical scoring, Mean","G6, 10 mg/kg BID oral, day 17",0.50
same,incidence of EAE,"G6, 10 mg/kg BID oral, day 17",40%
same,"EAE clinical scoring, Mean","G6, 10 mg/kg BID oral, day 18",0.60
same,incidence of EAE,"G6, 10 mg/kg BID oral, day 18",40%
same,"EAE clinical scoring, Mean","G6, 10 mg/kg BID oral, day 19",0.40
same,incidence of EAE,"G6, 10 mg/kg BID oral, day 19",20%
same,"EAE clinical scoring, Mean","G6, 10 mg/kg BID oral, day 20",0.30
same,incidence of EAE,"G6, 10 mg/kg BID oral, day 20",10%
same,"EAE clinical scoring, Mean","G6, 10 mg/kg BID oral, day 21",0.30
same,incidence of EAE,"G6, 10 mg/kg BID oral, day 21",20%
same,"EAE clinical scoring, Mean","G6, 10 mg/kg BID oral, day 22",0.30
same,incidence of EAE,"G6, 10 mg/kg BID oral, day 22",20%
same,"EAE clinical scoring, Mean","G6, 10 mg/kg BID oral, day 23",0.40
same,incidence of EAE,"G6, 10 mg/kg BID oral, day 23",30%
same,"EAE clinical scoring, Mean","G6, 10 mg/kg BID oral, day 24",0.40
same,incidence of EAE,"G6, 10 mg/kg BID oral, day 24",30%
same,"EAE clinical scoring, Mean","G6, 10 mg/kg BID oral, day 25",0.40
same,incidence of EAE,"G6, 10 mg/kg BID oral, day 25",30%
same,"EAE clinical scoring, Mean","G6, 10 mg/kg BID oral, day 26",0.40
same,incidence of EAE,"G6, 10 mg/kg BID oral, day 26",30%
